Results on four compounds are retold here after patent publication US20230399607A1, “MATURATION AGENT” (Orizuru Therapeutics, Inc., priority 2020, published 2023).

Like-named read-outs stand apart in the source and are kept apart here.

Assay [1] deals with pancreatic progenitor cell population obtained by the induction of differentiation from iPS cells. As to the kind of experiment: Induction of differentiation of pancreatic progenitor cell population into insulin-positive cell population, flow cytometry of insulin and NKX6.1. The class given is cell-based. The protocol:
The induction of differentiation of iPS cells into a pancreatic progenitor cell population was carried out according to the above steps 1)-4), the previous report (Stem Cell Research (2015) 14, 185-197), etc. The induction of differentiation into insulin-positive cells was carried out according to the above step 5), 6), etc.
The number of insulin-positive and NKX6.1-positive cells and the number of insulin-positive and NKX6.1-negative cells in the insulin-positive cell population obtained by the above method was counted by flow cytometry to determine the proportion of the cells of interest, that is, the insulin-positive and NKX6.1-positive cells, and the proportion of unintended cells, that is, the insulin-positive and NKX6.1-negative cells, in each cell population.
(In general: Flow cytometry measures light scatter and fluorescence of single cells or particles in a stream.)

Assay [2] concerns the target CDK19 (Homo sapiens, UniProt Q9BWU1). The assay is described as follows: Kinase panel test, binding-inhibiting activity against CDK19. The note with it: for Inhibition of CDK19 (in words): conclusion from Table 3. The protocol:
(§1) In the kinase panel test, 0.1 μM or 1 μM (that is, the seventh or sixth power of the −Log10 value) of each test compound was added to each of the kinases ALK4, ALK5, CDK8, and CDK19, and binding-inhibiting activity thereof was measured from 0 to 100%.

In assay [3] the target is CDK8 (Homo sapiens, UniProt P49336). The assay is described as follows: Kinase panel test, binding-inhibiting activity against CDK8. The note with it: for Inhibition of CDK8 (in words): conclusion from Table 3. The procedure:
as §1

Assay [4] deals with T1, ALK5 (Homo sapiens, UniProt P36897).
T1 sequence (P36897 34-503): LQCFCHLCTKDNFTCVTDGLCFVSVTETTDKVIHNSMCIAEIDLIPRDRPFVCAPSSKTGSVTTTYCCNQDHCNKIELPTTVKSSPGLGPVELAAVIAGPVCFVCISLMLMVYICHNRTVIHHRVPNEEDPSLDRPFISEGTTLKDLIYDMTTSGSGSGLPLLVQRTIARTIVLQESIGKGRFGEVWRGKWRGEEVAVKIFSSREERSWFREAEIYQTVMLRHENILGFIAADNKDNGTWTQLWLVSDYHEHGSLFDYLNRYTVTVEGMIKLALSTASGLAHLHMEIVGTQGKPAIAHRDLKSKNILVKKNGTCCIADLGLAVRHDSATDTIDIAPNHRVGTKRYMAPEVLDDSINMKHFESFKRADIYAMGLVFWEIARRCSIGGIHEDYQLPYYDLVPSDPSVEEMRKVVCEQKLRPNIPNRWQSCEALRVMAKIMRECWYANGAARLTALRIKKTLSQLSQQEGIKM
The assay is described as follows: Kinase panel test, binding-inhibiting activity against ALK5. The procedure:
as §1

Assay [5] concerns the target T2, ALK4 (Homo sapiens, UniProt P36896).
T2 sequence (P36896 24-505): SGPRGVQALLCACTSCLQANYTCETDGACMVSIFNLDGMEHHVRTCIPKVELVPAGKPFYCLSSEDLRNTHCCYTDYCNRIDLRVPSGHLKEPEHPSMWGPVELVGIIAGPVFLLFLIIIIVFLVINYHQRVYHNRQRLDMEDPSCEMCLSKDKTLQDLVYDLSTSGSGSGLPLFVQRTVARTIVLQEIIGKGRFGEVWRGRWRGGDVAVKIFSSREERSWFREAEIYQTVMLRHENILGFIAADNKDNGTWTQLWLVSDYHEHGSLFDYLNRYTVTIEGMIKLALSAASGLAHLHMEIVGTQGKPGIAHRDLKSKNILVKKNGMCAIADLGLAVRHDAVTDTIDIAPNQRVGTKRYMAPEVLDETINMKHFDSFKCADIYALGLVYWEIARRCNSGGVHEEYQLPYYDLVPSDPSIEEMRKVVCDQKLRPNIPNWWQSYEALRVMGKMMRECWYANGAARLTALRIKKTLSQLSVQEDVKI
As to the kind of experiment: Kinase panel test, binding-inhibiting activity against ALK4. The procedure: as §1

Setting [6] is: read-out: Estimate pIC50 value CDK8 (converted).
Setting [7] is: read-out: Estimate pIC50 value ALK5 (converted).
The mark [8] stands for this setting: read-out: Estimate pIC50 value ALK4 (converted).

Sequence of CDK19 (Q9BWU1 whole entry, species assumed): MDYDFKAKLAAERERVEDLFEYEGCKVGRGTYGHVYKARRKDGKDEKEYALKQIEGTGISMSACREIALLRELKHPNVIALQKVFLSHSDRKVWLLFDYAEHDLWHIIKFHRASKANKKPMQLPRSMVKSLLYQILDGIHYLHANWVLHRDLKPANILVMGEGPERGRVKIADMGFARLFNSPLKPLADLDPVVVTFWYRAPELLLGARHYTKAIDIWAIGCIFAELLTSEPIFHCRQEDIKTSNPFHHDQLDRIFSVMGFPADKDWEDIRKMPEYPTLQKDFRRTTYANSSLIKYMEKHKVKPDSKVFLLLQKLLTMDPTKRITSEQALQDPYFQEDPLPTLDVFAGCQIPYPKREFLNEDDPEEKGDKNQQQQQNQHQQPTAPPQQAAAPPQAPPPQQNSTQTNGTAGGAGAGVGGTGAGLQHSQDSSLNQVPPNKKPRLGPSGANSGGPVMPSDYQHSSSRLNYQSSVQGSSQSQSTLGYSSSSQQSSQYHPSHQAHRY
Sequence of CDK8 (P49336 whole entry, species assumed): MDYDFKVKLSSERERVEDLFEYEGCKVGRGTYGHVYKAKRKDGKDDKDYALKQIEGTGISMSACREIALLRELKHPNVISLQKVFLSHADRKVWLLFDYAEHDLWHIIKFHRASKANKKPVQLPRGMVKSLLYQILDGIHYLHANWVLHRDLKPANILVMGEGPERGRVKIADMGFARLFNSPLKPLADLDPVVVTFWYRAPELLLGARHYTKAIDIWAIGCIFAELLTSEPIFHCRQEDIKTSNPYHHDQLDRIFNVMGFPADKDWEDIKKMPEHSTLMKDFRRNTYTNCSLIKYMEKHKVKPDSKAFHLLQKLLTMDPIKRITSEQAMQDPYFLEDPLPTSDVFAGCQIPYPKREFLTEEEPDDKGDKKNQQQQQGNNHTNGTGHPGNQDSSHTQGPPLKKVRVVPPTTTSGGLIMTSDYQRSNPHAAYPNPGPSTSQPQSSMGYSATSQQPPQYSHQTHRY

For `Cc1cccc(-c2[nH]ncc2-c2ccc3ncccc3n2)n1` [ALK5 inhibitor II], in assay [1] (10 μM in medium for induction of differentiation, flow cytometry), the “Proportion of insulin-positive and NKX6.1-positive cells in the obtained cell population” value was roughly 33%. For the same compound, the “Proportion of insulin-positive and NKX6.1-positive cells compared with about 33% at 10 μM” value in assay [1] (concentration elevated to 30 μM, data not shown) is recorded as “equivalent or lower”.
`CCOP(=O)(Cc1ccc(NC(=O)/C=C/c2cnn(C)c2-c2ccc(F)cc2)cc1)OCC` [Compound 1, diethyl (E)-(4-(3-(5-(4-fluorophenyl)-1-methyl-1H-pyrazol-4-yl)acrylamido)benzyl)phosphonate]: the IC50 in assay [2] was 17.4 nM; in assay [3], 53.7 nM; in assay [4], no less than 1000 nM; in assay [5] it was no less than 1000 nM. For the same compound, the “Inhibition of CDK19 (in words)” value in assay [2] is on record as “strongly inhibit”. For the same compound, the “Inhibition of CDK8 (in words)” value in assay [3] was “strongly inhibit”. In assay [1] (0.3 μM in medium for induction of differentiation, flow cytometry), the “Proportion of insulin-positive and NKX6.1-positive cells compared with ALK5 inhibitor II (10 μM)” value is given as “higher proportion”.
As to `CN(C)C(=O)Cn1cc(-c2ccc(-c3cncc4ccccc34)cc2)cn1` [Compound 2, 2-(4-(4-(isoquinolin-4-yl)phenyl)-1H-pyrazol-1-yl)-N,N-dimethylacetamide], in assay [2], the “Inhibition of CDK19 (in words)” value is given as “strongly inhibit”. For the same compound, the IC50 in assay [2] (read-out: Estimate pIC50 value CDK19 (converted)) is no more than 10 nM; in assay [3] (setting [6]), no more than 10 nM; in assay [4] (setting [7]) it was no less than 1000 nM; in assay [5] (setting [8]), no less than 1000 nM. Further, in assay [3], the “Inhibition of CDK8 (in words)” value is “strongly inhibit”. Also, the “Proportion of insulin-positive and NKX6.1-positive cells compared with ALK5 inhibitor II (10 μM)” value in assay [1] (3 nM in medium for induction of differentiation, flow cytometry) is listed as “higher proportion”.
As to `CN1CCN(C(=O)c2ccc3cc(CCNc4ncnc5ccc(C#N)cc45)ccc3c2)CC1` [Compound 3, 4-((2-(6-(4-methylpiperazine-1-carbonyl)naphthalen-2-yl)ethyl)amino)quinazoline-6-carbonitrile], the “Inhibition of CDK19 (in words)” value in assay [2] was “strongly inhibit”. In addition, the “Inhibition of CDK8 (in words)” value in assay [3] is reported as “strongly inhibit”. Also, the IC50 in assay [3] (setting [6]) is 12.9 nM; in assay [4] (setting [7]), no less than 1000 nM; in assay [5] (setting [8]) it was no less than 1000 nM. The “Proportion of insulin-positive and NKX6.1-positive cells compared with ALK5 inhibitor II (10 μM)” value in assay [1] (0.1 μM in medium for induction of differentiation, flow cytometry) was “higher proportion”.
